Paper PMC7840908 (Communications Biology, 2021)
“And” between values parts separate entries of the source, which are not always exact repeats. Equal values may be shown once. “Also recorded” adds a separate entry of the source.

Experiments:
Assay type in all cases: binding
MERS-CoV macro domain [1] = biological target: T1, MERS-CoV macro domain (Middle East respiratory syndrome-related coronavirus, UniProt K9N638)
MERS-CoV macro domain [2] = biological target: T1, MERS-CoV macro domain; remark: listed apart in the source
MERS-CoV macro domain [3] = biological target: T1, MERS-CoV macro domain; remark: listed apart in the source
MERS-CoV macro domain [4] = biological target: T1, MERS-CoV macro domain; remark: listed apart in the source

T1 sequence (K9N638 1110-1276 limits assumed): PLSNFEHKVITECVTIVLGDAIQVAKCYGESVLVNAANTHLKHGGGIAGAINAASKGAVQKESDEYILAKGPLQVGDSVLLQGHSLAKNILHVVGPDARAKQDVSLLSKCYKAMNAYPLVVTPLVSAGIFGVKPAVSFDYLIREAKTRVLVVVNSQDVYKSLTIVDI

SMILES: Nc1ncnc2c1ncn2[C@@H]1O[C@H](COP(=O)(O)OP(=O)(O)O)[C@@H](O)[C@H]1O [ADP, adenosine diphosphate]
- Melting temperature (Tm) of the MERS-CoV macro domain in complex, CD (MERS-CoV macro domain [1]): 43.7 °C
- Melting temperature (Tm) of the MERS-CoV macro domain in complex, DSF (MERS-CoV macro domain [2]): 44.5 °C
- n (stoichiometry of binding) (MERS-CoV macro domain [3]): 1.08 ± 0.06
- ΔH (MERS-CoV macro domain [3]): -3.85 ± 1.8 kcal/mol
- −TΔS (MERS-CoV macro domain [3]): -1.86 ± 1.51 kcal/mol
- NMR CSP, residue 11 (MERS-CoV macro domain [4]): 0.01279 and 0.006701
- NMR CSP, residue 29 (MERS-CoV macro domain [4]): 0.01328 and 0.01691
- NMR CSP, residue 36 (MERS-CoV macro domain [4]): 0.05057
- NMR CSP, residue 37 (MERS-CoV macro domain [4]): 0.07911
- NMR CSP, residue 46 (MERS-CoV macro domain [4]): 0.3834
- NMR CSP, residue 47 (MERS-CoV macro domain [4]): 0.05654 and 0.03639
- NMR CSP, residue 48 (MERS-CoV macro domain [4]): 0.08159 and 0.1212
- NMR CSP, residue 67 (MERS-CoV macro domain [4]): 0.0178 and 0.009143
- NMR CSP, residue 75 (MERS-CoV macro domain [4]): 0.05887 and 0.06181
- NMR CSP, residue 94 (MERS-CoV macro domain [4]): 0.1393
- NMR CSP, residue 101 (MERS-CoV macro domain [4]): 0.03691 and 0.02294
- NMR CSP, residue 125 (MERS-CoV macro domain [4]): 0.08579
- NMR CSP, residue 130 (MERS-CoV macro domain [4]): 0.08457 and 0.1167
- NMR CSP, residue 132 (MERS-CoV macro domain [4]): 0.01774 and 0.01343
- NMR CSP, residue 149 (MERS-CoV macro domain [4]): 0.01454
- NMR CSP, residue 154 (MERS-CoV macro domain [4]): 0.08237
- NMR CSP, residue 156 (MERS-CoV macro domain [4]): 0.2276

SMILES: Nc1ncnc2c1ncn2C1OC(COP(=O)(O)O)C(O)C1O (centres unmarked) [AMP, adenosine monophosphate]
- Melting temperature (Tm) of the MERS-CoV macro domain in complex, CD (MERS-CoV macro domain [1]): 44.0 °C
- Melting temperature (Tm) of the MERS-CoV macro domain in complex, DSF (MERS-CoV macro domain [2]): 42.5 °C
- n (stoichiometry of binding) (MERS-CoV macro domain [3]): 1.05 ± 0.38
- ΔH (MERS-CoV macro domain [3]): -2.674 ± 0.722 kcal/mol
- −TΔS (MERS-CoV macro domain [3]): -2.419 ± 0.571 kcal/mol
- NMR CSP, residue 12 (MERS-CoV macro domain [4]): 0.007029 and 0.005468
- NMR CSP, residue 22 (MERS-CoV macro domain [4]): 0.06732 and 0.05323
- NMR CSP, residue 23 (MERS-CoV macro domain [4]): 0.01249 and 0.01858
- NMR CSP, residue 31 (MERS-CoV macro domain [4]): 0.03059 and 0.02592
- NMR CSP, residue 55 (MERS-CoV macro domain [4]): 0.07284 and 0.04017
- NMR CSP, residue 67 (MERS-CoV macro domain [4]): 0.009649 and 0.005916
- NMR CSP, residue 70 (MERS-CoV macro domain [4]): 0.01453 and 0.01754
- NMR CSP, residue 71 (MERS-CoV macro domain [4]): 0.01269 and 0.01423
- NMR CSP, residue 78 (MERS-CoV macro domain [4]): 0.004301 and 0.003017
- NMR CSP, residue 81 (MERS-CoV macro domain [4]): 0.019 and 0.02485
- NMR CSP, residue 85 (MERS-CoV macro domain [4]): 0.01205 and 0.01581
- NMR CSP, residue 90 (MERS-CoV macro domain [4]): 0.01829 and 0.02265
- NMR CSP, residue 99 (MERS-CoV macro domain [4]): 0.0122 and 0.008579
- NMR CSP, residue 110 (MERS-CoV macro domain [4]): 0.01629 and 0.01233
- NMR CSP, residue 130 (MERS-CoV macro domain [4]): 0.0583 and 0.06532
- NMR CSP, residue 138 (MERS-CoV macro domain [4]): 0.02281 and 0.03131
- NMR CSP, residue 153 (MERS-CoV macro domain [4]): 0.05051
- NMR CSP, residue 156 (MERS-CoV macro domain [4]): 0.1498
- NMR CSP, residue 161 (MERS-CoV macro domain [4]): 0.003728 and 0.003225
- NMR chemical shift perturbation behaviour / exchange regime (MERS-CoV macro domain [4]): fast-exchange; also recorded: almost no chemical shift perturbation

SMILES: Nc1ncnc2c1ncn2[C@@H]1O[C@H](COP(=O)(O)OP(=O)(O)OP(=O)(O)O)[C@@H](O)[C@H]1O [ATP, adenosine triphosphate]
- Melting temperature (Tm) of the MERS-CoV macro domain in complex, CD (MERS-CoV macro domain [1]): 44.4 °C
- Melting temperature (Tm) of the MERS-CoV macro domain in complex, DSF (MERS-CoV macro domain [2]): 43.0 °C
- n (stoichiometry of binding) (MERS-CoV macro domain [3]): 1.28 ± 0.23
- ΔH (MERS-CoV macro domain [3]): -0.103 ± 0.0621 kcal/mol
- −TΔS (MERS-CoV macro domain [3]): -4.725 ± 0.115 kcal/mol
- NMR CSP, residue 4 (MERS-CoV macro domain [4]): 0.02128 and 0.03079
- NMR CSP, residue 8 (MERS-CoV macro domain [4]): 0.08407 and 0.1389
- NMR CSP, residue 11 (MERS-CoV macro domain [4]): 0.01204 and 0.01003
- NMR CSP, residue 12 (MERS-CoV macro domain [4]): 0.02593 and 0.01302
- NMR CSP, residue 13 (MERS-CoV macro domain [4]): 0.02822 and 0.05324
- NMR CSP, residue 15 (MERS-CoV macro domain [4]): 0.05255 and 0.08443
- NMR CSP, residue 16 (MERS-CoV macro domain [4]): 0.08559 and 0.1065
- NMR CSP, residue 19 (MERS-CoV macro domain [4]): 0.2213 and 0.3991
- NMR CSP, residue 20 (MERS-CoV macro domain [4]): 0.5582 and 0.5971
- NMR CSP, residue 24 (MERS-CoV macro domain [4]): 0.02113 and 0.02272
- NMR CSP, residue 27 (MERS-CoV macro domain [4]): 0.04023 and 0.04654
- NMR CSP, residue 31 (MERS-CoV macro domain [4]): 0.01765 and 0.03281
- NMR CSP, residue 32 (MERS-CoV macro domain [4]): 0.03557 and 0.06867
- NMR CSP, residue 33 (MERS-CoV macro domain [4]): 0.003317 and 0.005514
- NMR CSP, residue 35 (MERS-CoV macro domain [4]): 0.08722 and 0.0586
- NMR CSP, residue 41 (MERS-CoV macro domain [4]): 0.07865 and 0.1421
- NMR CSP, residue 42 (MERS-CoV macro domain [4]): 0.02022 and 0.03875
- NMR CSP, residue 44 (MERS-CoV macro domain [4]): 0.117 and 0.1567
- NMR CSP, residue 46 (MERS-CoV macro domain [4]): 0.2082 and 0.117
- NMR CSP, residue 49 (MERS-CoV macro domain [4]): 0.1963 and 0.3148
- NMR CSP, residue 52 (MERS-CoV macro domain [4]): 0.1171 and 0.2037
- NMR CSP, residue 53 (MERS-CoV macro domain [4]): 0.06017 and 0.08476
- NMR CSP, residue 54 (MERS-CoV macro domain [4]): 0.04378 and 0.08204
- NMR CSP, residue 55 (MERS-CoV macro domain [4]): 0.03609 and 0.04139
- NMR CSP, residue 56 (MERS-CoV macro domain [4]): 0.1144
- NMR CSP, residue 59 (MERS-CoV macro domain [4]): 0.1073 and 0.0995
- NMR CSP, residue 64 (MERS-CoV macro domain [4]): 0.02081 and 0.02918
- NMR CSP, residue 67 (MERS-CoV macro domain [4]): 0.009187 and 0.006075
- NMR CSP, residue 68 (MERS-CoV macro domain [4]): 0.007457 and 0.01342
- NMR CSP, residue 69 (MERS-CoV macro domain [4]): 0.006641 and 0.01241
- NMR CSP, residue 70 (MERS-CoV macro domain [4]): 0.007029 and 0.01308
- NMR CSP, residue 74 (MERS-CoV macro domain [4]): 0.01357 and 0.01451
- NMR CSP, residue 76 (MERS-CoV macro domain [4]): 0.1087 and 0.1584
- NMR CSP, residue 79 (MERS-CoV macro domain [4]): 0.06062 and 0.09243
- NMR CSP, residue 80 (MERS-CoV macro domain [4]): 0.02546 and 0.0359
- NMR CSP, residue 82 (MERS-CoV macro domain [4]): 0.03386 and 0.028
- NMR CSP, residue 88 (MERS-CoV macro domain [4]): 0.01281 and 0.02472
- NMR CSP, residue 91 (MERS-CoV macro domain [4]): 0.02979 and 0.05588
- NMR CSP, residue 92 (MERS-CoV macro domain [4]): 0.05948 and 0.09574
- NMR CSP, residue 98 (MERS-CoV macro domain [4]): 0.08735 and 0.113
- NMR CSP, residue 99 (MERS-CoV macro domain [4]): 0.04875 and 0.06519
- NMR CSP, residue 101 (MERS-CoV macro domain [4]): 0.01539 and 0.022
- NMR CSP, residue 102 (MERS-CoV macro domain [4]): 0.003066
- NMR CSP, residue 104 (MERS-CoV macro domain [4]): 0.03263 and 0.04354
- NMR CSP, residue 105 (MERS-CoV macro domain [4]): 0.0458 and 0.08781
- NMR CSP, residue 108 (MERS-CoV macro domain [4]): 0.03048 and 0.01721
- NMR CSP, residue 109 (MERS-CoV macro domain [4]): 0.0202 and 0.03155
- NMR CSP, residue 111 (MERS-CoV macro domain [4]): 0.0136 and 0.02579
- NMR CSP, residue 113 (MERS-CoV macro domain [4]): 0.02518 and 0.03785
- NMR CSP, residue 117 (MERS-CoV macro domain [4]): 0.02758 and 0.03325
- NMR CSP, residue 119 (MERS-CoV macro domain [4]): 0.05435 and 0.04262
- NMR CSP, residue 122 (MERS-CoV macro domain [4]): 0.04092 and 0.06158
- NMR CSP, residue 125 (MERS-CoV macro domain [4]): 0.4401 and 0.7457
- NMR CSP, residue 126 (MERS-CoV macro domain [4]): 0.163 and 0.2535
- NMR CSP, residue 131 (MERS-CoV macro domain [4]): 0.1039 and 0.07453
- NMR CSP, residue 132 (MERS-CoV macro domain [4]): 0.1244 and 0.1155
- NMR CSP, residue 135 (MERS-CoV macro domain [4]): 0.05654 and 0.08994
- NMR CSP, residue 136 (MERS-CoV macro domain [4]): 0.05575 and 0.07379
- NMR CSP, residue 138 (MERS-CoV macro domain [4]): 0.04766 and 0.08654
- NMR CSP, residue 139 (MERS-CoV macro domain [4]): 0.05001 and 0.03334
- NMR CSP, residue 140 (MERS-CoV macro domain [4]): 0.07046 and 0.09693
- NMR CSP, residue 144 (MERS-CoV macro domain [4]): 0.02987 and 0.05222
- NMR CSP, residue 148 (MERS-CoV macro domain [4]): 0.04492 and 0.05905
- NMR CSP, residue 149 (MERS-CoV macro domain [4]): 0.04139 and 0.04999
- NMR CSP, residue 151 (MERS-CoV macro domain [4]): 0.03194 and 0.04624
- NMR CSP, residue 152 (MERS-CoV macro domain [4]): 0.2468
- NMR CSP, residue 153 (MERS-CoV macro domain [4]): 0.1157 and 0.09952
- NMR CSP, residue 155 (MERS-CoV macro domain [4]): 0.2226 and 0.3418
- NMR CSP, residue 156 (MERS-CoV macro domain [4]): 0.03888
- NMR CSP, residue 158 (MERS-CoV macro domain [4]): 0.03042 and 0.04983
- NMR CSP, residue 159 (MERS-CoV macro domain [4]): 0.008826 and 0.007483
- NMR CSP, residue 161 (MERS-CoV macro domain [4]): 0.02817 and 0.01678
- NMR CSP, residue 164 (MERS-CoV macro domain [4]): 0.03315 and 0.0552
